Experimental data reported in patent publication US9938262B2, “Benzamides” (Merck Patent GmbH, priority 2011, dated 2018).

Biological target: T1, FSHR (Homo sapiens, UniProt P23945)
T1 construct: expressed in transfected cells; host or cells: CHO (Cho-FSHR-LUC-1-1-43)
Experiment: EC50 of cyclic AMP production in CHO FSHR cells + EC20 FSH (Assay A)
Format: cell-based
Conditions: CHO FSHR cells + EC20 FSH; Table 2; read-out: Assay A EC50 of cyclic AMP production
Summary of the method: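 cAMP HTRF ratio (665/620 nm) read after 1 h, 37 °C exposure of CHO-FSHR cells to compound in presence of EC20 FSH ([…]) and IBMX 200 μM. Responses given relative to FSH standard maximum; EC50 derived.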

T1 sequence (P23945 18-695): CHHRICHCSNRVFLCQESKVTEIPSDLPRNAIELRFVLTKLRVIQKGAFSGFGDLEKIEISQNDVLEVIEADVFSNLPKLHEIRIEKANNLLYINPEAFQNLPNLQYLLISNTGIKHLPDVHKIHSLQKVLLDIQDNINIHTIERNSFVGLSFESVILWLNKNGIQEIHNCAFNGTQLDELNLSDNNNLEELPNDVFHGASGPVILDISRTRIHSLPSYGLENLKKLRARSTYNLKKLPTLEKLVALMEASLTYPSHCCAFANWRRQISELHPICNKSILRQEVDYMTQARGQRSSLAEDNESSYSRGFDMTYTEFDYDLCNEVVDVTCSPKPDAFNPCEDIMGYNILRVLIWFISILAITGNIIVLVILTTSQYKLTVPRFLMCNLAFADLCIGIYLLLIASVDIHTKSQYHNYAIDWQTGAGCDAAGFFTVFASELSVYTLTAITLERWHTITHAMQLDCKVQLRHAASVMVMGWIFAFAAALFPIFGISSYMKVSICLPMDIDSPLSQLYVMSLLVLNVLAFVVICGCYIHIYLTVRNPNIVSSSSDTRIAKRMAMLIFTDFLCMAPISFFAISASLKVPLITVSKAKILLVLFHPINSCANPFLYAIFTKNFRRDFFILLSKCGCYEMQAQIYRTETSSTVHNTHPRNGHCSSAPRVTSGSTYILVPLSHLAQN
T1 sequence (P01215 25-116 partner): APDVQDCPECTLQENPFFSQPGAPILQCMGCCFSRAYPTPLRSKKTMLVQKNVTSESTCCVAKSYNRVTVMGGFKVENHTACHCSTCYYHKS
T1 sequence (P01225 19-129 partner): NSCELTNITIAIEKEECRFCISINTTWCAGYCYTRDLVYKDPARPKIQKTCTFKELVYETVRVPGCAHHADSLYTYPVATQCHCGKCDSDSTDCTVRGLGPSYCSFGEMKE

Compound | EC50 [nM]
Cc1ccccc1N(C)C1CCN(c2ccc(C(=O)NCCCN3CCCC3=O)cc2NC(=O)c2coc(C3CC3)n2)CC1 [Compound 405] | 100 to 1000
CN(c1ccccc1)C1CCN(c2ccc(C(=O)NCCCN3CCCC3=O)cc2NC(=O)c2coc(C3CC3)n2)CC1 [Compound 407] | > 10000
Cc1cncnc1N1CCN(c2ccc(C(=O)NCCCN3CCCC3=O)cc2NC(=O)c2coc(C3CC3)n2)CC1 [Compound 413] | 1000 to 10000
Cc1ccccc1C1=CCN(c2ccc(C(=O)NCCCN3CCCC3=O)cc2NC(=O)c2coc(C3CC3)n2)CC1 [Compound 414] | 100 to 1000
Cc1ccccc1N1CCN(c2ccc(C(=O)NCCCN3CCCC3=O)cc2NC(=O)c2nccn2C)CC1 [Compound 415] | > 10000
Cc1ccc(C(=O)Nc2cc(C(=O)NCCCN3CCCC3=O)ccc2N2CCN(c3ncncc3C)CC2)o1 [Compound 419] | > 10000
Cc1cncnc1N1CCN(c2ccc(C(=O)NCCCN3CCCC3=O)cc2NC(=O)c2ccco2)CC1 [Compound 420] | > 10000
Cc1ccccc1N1CCN(c2ccc(C(=O)NCCCN3CCCC3=O)cc2NC(=O)c2cncn2C)CC1 [Compound 421] | > 10000
Cc1ccccc1N1CCN(c2ccc(C(=O)NCCCN3CCCC3=O)cc2NC(=O)c2coc(CN(C)C)n2)CC1 [Compound 422] | > 10000
Cc1ccc(C(=O)Nc2cc(C(=O)NCCCN3CCCC3=O)ccc2N2CCC(N(C)c3ccccc3)CC2)o1 [Compound 423] | > 10000
Cc1ccccc1N1CCN(c2ccc(C(=O)NCCCN3CCCC3=O)cc2NCc2cccc3cccnc23)CC1 [Compound 429] | 100 to 1000
O=C(NCCCN1CCCC1=O)c1ccc(N2CCN(C(=O)C3CC3)CC2)c(NC(=O)c2coc(C3CC3)n2)c1 [Compound 431] | > 10000
CC(C)C(=O)N1CCN(c2ccc(C(=O)NCCCN3CCCC3=O)cc2NC(=O)c2coc(C3CC3)n2)CC1 [Compound 432] | 1000 to 10000
Cc1ccccc1N1CCN(c2ccc(C(=O)NCCc3cccc(CN(C)C)c3)cc2NC(=O)c2ccco2)CC1 [Compound 437] | 100 to 1000
Cc1cccnc1N1CCN(c2ccc(C(=O)NCCCN3CCCC3=O)cc2NC(=O)c2coc(C3CC3)n2)CC1 [Compound 439] | < 100
Cc1ccccc1N1CCN(c2ccc(C(=O)NCCCN3CCCC3=O)cc2NC(=O)c2ncc[nH]2)CC1 [Compound 440] | 100 to 1000
Cc1cccnc1N1CCN(c2ccc(C(=O)NCCc3c[nH]cn3)cc2NC(=O)c2coc(C3CC3)n2)CC1 [Compound 444] | 100 to 1000
Cc1ccccc1N1CCN(c2ccc(C(=O)NCCCN3CCCC3=O)cc2NC(=O)c2ccc(C3CC3)o2)CC1 [Compound 449] | 100 to 1000

Compound | EC50 [nM]
Cc1ccccc1N1CCN(c2ccc(C(=O)NCCCN3CCCC3=O)cc2NC(=O)C(F)(F)F)CC1 [Compound 451] | 100 to 1000
Cc1ccccc1N1CCN(c2ccc(C(=O)NCc3cccc(CN4CCCC4)c3)cc2NC(=O)c2ccco2)CC1 [Compound 454] | 100 to 1000
Cc1ccccc1N1CCN(c2ccc(C(=O)NCc3ccc(CN(C)C)cc3)cc2NC(=O)c2ccco2)CC1 [Compound 455] | 100 to 1000
Cc1ccccc1N1CCN(c2ccc(C(=O)NCc3ccccc3CN(C)C)cc2NC(=O)c2ccco2)CC1 [Compound 456] | 100 to 1000
Cc1cncnc1N1CCN(c2ccc(C(=O)NCCCN3CCOC3=O)cc2NC(=O)c2coc(C3CC3)n2)CC1 [Compound 460] | 100 to 1000
Cc1cncnc1N1CCN(c2ccc(C(=O)NCCc3cn(C)cn3)cc2NC(=O)c2coc(C3CC3)n2)CC1 [Compound 462] | 1000 to 10000
Cc1ccc(C(=O)Nc2cc(C(=O)NCCCN3CCCC3=O)ccc2N2CCN(c3ncccc3C)CC2)o1 [Compound 463] | 100 to 1000
Cc1ccc(C(=O)Nc2cc(C(=O)NCCc3cn(C)cn3)ccc2N2CCN(c3ncccc3C)CC2)o1 [Compound 464] | 1000 to 10000
Cc1ccccc1N1CCN(c2ccc(C(=O)NCCCN3CCCC3=O)cc2NC(=O)c2nnc(C3CC3)o2)CC1 [Compound 466] | 1000 to 10000
Cc1ccccc1N1CCN(c2ccc(C(=O)NCC(O)CN3CCCC3=O)cc2NC(=O)c2ccco2)CC1 (stereo not shown) [Compound 467] | < 100
Cc1ccccc1N1CCN(c2ccc(C(=O)NCCCN3CCNC3=O)cc2NC(=O)c2ccco2)CC1 [Compound 468] | < 100
Cc1ccccc1N1CCN(c2ccc(C(=O)NCCCc3cccnc3)cc2NC(=O)c2ccco2)CC1 [Compound 469] | 100 to 1000
Cc1ccccc1N1CCN(c2ccc(C(=O)NCCCN3CCCCC3=O)cc2NC(=O)c2ccco2)CC1 [Compound 470] | 100 to 1000
Cc1ccccc1N1CCN(c2ccc(C(=O)NCc3cccc(CN4CCOCC4)c3)cc2NC(=O)c2ccco2)CC1 [Compound 471] | 100 to 1000
CCN(CC)Cc1cccc(CNC(=O)c2ccc(N3CCN(c4ccccc4C)CC3)c(NC(=O)c3ccco3)c2)c1 [Compound 473] | 100 to 1000
Cc1ccccc1N1CCN(c2ccc(C(=O)NCc3cccc(CN(C)C)n3)cc2NC(=O)c2ccco2)CC1 [Compound 474] | < 100
Cc1ccc(C(=O)Nc2cc(C(=O)NCCCN3CCCC3=O)ccc2N2CCN(c3ccncc3C)CC2)o1 [Compound 475] | > 10000
Cc1ccccc1N1CCN(c2ccc(C(=O)NCCCN3C(=O)[C@H]4C[C@@H]3C(O)C4O)cc2NC(=O)c2ccco2)CC1 (stereo partly shown) [Compound 477] | < 100

Other lines, results leading:

EC50 [nM] | Compound
100 to 1000 | Cc1ccccc1N1CCN(c2ccc(C(=O)NCCCN3CCOCC3)cc2NC(=O)c2coc(C3CC3)n2)CC1 [Compound 406]
100 to 1000 | Cc1ccccc1N1CCN(c2ccc(C(=O)NCCc3cccc(CN(C)C)c3)cc2NC(=O)c2coc(C3CC3)n2)CC1 [Compound 408]
> 10000 | Cc1ccccc1N1CCN(c2ccc(C(=O)Nc3ccc(C(C)(C)C#N)cc3)cc2NC(=O)c2coc(C3CC3)n2)CC1 [Compound 409]
100 to 1000 | Cc1ccccc1N1CCN(c2ccc(C(=O)NCCc3ccccc3C(N)=O)cc2NC(=O)c2coc(C3CC3)n2)CC1 [Compound 411]
1000 to 10000 | Cc1ccccc1N1CCN(c2ccc(C(=O)Nc3ccnn3CC3CCOC3)cc2NC(=O)c2coc(C3CC3)n2)CC1 (stereo not shown) [Compound 412]
100 to 1000 | Cc1ccccc1N1CCN(c2ccc(C(=O)NCCCNC(=O)OC(C)(C)C)cc2NC(=O)c2coc(C3CC3)n2)CC1 [Compound 416]
1000 to 10000 | Cc1ccccc1N1CCN(c2ccc(C(=O)NCCCN)cc2NC(=O)c2coc(C3CC3)n2)CC1 [Compound 417]
100 to 1000 | Cc1ccccc1N1CCN(c2ccc(C(=O)NCCCC(=O)N(C)C)cc2NC(=O)c2coc(C3CC3)n2)CC1 [Compound 418]
100 to 1000 | CC(=O)NCCOCCOCCNC(=O)c1ccc(N2CCN(c3ccccc3C)CC2)c(NC(=O)c2coc(C3CC3)n2)c1 [Compound 424]
100 to 1000 | Cc1ccccc1N1CCN(c2ccc(C(=O)NCCCNC(=O)NC(C)C)cc2NC(=O)c2coc(C3CC3)n2)CC1 [Compound 425]
100 to 1000 | C=CCNC(=O)NCCCNC(=O)c1ccc(N2CCN(c3ccccc3C)CC2)c(NC(=O)c2coc(C3CC3)n2)c1 [Compound 426]
100 to 1000 | CCCCNC(=O)NCCCNC(=O)c1ccc(N2CCN(c3ccccc3C)CC2)c(NC(=O)c2coc(C3CC3)n2)c1 [Compound 427]
> 10000 | Cc1ccccc1N1CCN(c2ccc(C(=O)NCCCNC(=O)Nc3ccc(C(F)(F)F)cc3)cc2NC(=O)c2coc(C3CC3)n2)CC1 [Compound 428]
100 to 1000 | Cc1cnc(CCCNC(=O)c2ccc(N3CCN(c4ccccc4C)CC3)c(NC(=O)c3coc(C4CC4)n3)c2)s1 [Compound 430]
100 to 1000 | CCCNC(=O)NCCCNC(=O)c1ccc(N2CCN(c3ccccc3C)CC2)c(NC(=O)c2coc(C3CC3)n2)c1 [Compound 433]
100 to 1000 | Cc1ccccc1N1CCN(c2ccc(C(=O)NCCCNC(=O)c3ccccc3)cc2NC(=O)c2coc(C3CC3)n2)CC1 [Compound 434]

EC50 [nM] | Compound
100 to 1000 | Cc1ccccc1N1CCN(c2ccc(C(=O)NCCCN3CCCC3=O)cc2NC(=O)c2coc(C3CC3)n2)CC1 [Compound 436]
100 to 1000 | Cc1noc(CCCNC(=O)c2ccc(N3CCN(c4ccccc4C)CC3)c(NC(=O)c3coc(C4CC4)n3)c2)n1 [Compound 438]
< 100 | Cc1ccccc1N1CCN(c2ccc(C(=O)NCCCNC(=O)C3CCOCC3)cc2NC(=O)c2coc(C3CC3)n2)CC1 [Compound 441]
100 to 1000 | Cc1ccccc1N1CCN(c2ccc(C(=O)NCCCNC(=O)c3ccncc3)cc2NC(=O)c2coc(C3CC3)n2)CC1 [Compound 442]
100 to 1000 | Cc1cccc(C(=O)NCCCNC(=O)c2ccc(N3CCN(c4ccccc4C)CC3)c(NC(=O)c3coc(C4CC4)n3)c2)n1 [Compound 443]
< 100 | CCC(=O)NCCCNC(=O)c1ccc(N2CCN(c3ccccc3C)CC2)c(NC(=O)c2coc(C3CC3)n2)c1 [Compound 445]
100 to 1000 | Cc1ccccc1N1CCN(c2ccc(C(=O)NCCCNC(=O)C(C)C)cc2NC(=O)c2coc(C3CC3)n2)CC1 [Compound 446]
100 to 1000 | Cc1ccccc1N1CCN(c2ccc(C(=O)NCCCNC(=O)C3CC3)cc2NC(=O)c2coc(C3CC3)n2)CC1 [Compound 447]
100 to 1000 | Cc1ccccc1N1CCN(c2ccc(C(=O)NCCCNC(=O)C3CCC3)cc2NC(=O)c2coc(C3CC3)n2)CC1 [Compound 448]
1000 to 10000 | Cc1cnccc1N1CCN(c2ccc(C(=O)NCCCN3CCCC3=O)cc2NC(=O)c2coc(C3CC3)n2)CC1 [Compound 452]
100 to 1000 | Cc1ccccc1N1CCN(c2ccc(C(=O)NCCC#N)cc2NC(=O)c2coc(C3CC3)n2)CC1 [Compound 453]
1000 to 10000 | Cc1cnccc1N1CCN(c2ccc(C(=O)NCCc3cnc[nH]3)cc2NC(=O)c2coc(C3CC3)n2)CC1 [Compound 457]
100 to 1000 | Cc1ccccc1N1CCN(c2ccc(C(=O)NCCCN3CCC(O)C3)cc2NC(=O)c2coc(C3CC3)n2)CC1 (stereo not shown) [Compound 461]
100 to 1000 | Cc1ccccc1N1CCN(c2ccc(C(=O)NCc3cccc(CN(C)C)n3)cc2NC(=O)c2coc(C3CC3)n2)CC1 [Compound 465]
100 to 1000 | Cc1ccccc1N1CCN(c2ccc(C(=O)NCCCCN3CCOCC3)cc2NC(=O)c2coc(C3CC3)n2)CC1 [Compound 472]
